Laboratory results published in patent US9249127B2 (Orion Corporation, priority 2012, dated 2016).
Structures can show the parent of a compound that is named as a salt. Where two headings read alike, the source gives them in different places.

Biological target: T1, alpha2A receptor (Homo sapiens, UniProt P08913)
T1 sequence (P08913 1-465): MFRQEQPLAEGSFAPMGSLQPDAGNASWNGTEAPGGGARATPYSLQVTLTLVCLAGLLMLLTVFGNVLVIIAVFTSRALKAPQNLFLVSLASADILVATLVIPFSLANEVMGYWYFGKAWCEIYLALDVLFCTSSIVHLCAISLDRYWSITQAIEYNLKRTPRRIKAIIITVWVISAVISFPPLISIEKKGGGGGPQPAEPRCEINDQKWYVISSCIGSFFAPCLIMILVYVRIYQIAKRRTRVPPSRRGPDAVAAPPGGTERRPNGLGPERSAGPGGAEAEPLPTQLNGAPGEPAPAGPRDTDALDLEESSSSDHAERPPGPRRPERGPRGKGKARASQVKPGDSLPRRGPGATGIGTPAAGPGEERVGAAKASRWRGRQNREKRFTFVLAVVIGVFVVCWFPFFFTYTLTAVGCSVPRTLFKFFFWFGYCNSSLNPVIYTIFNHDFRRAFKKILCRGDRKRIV
Test: Alpha2A agonistic activity in vitro
Assay type: cell-based

[1] = in vitro, read-out: Alpha2A Agonism pEC50 (converted)
[2] = Alpha2A Agonism pEC50, in vitro

Molecule	Alpha2A Agonism pEC50 (in vitro)	Alpha2A Intrinsic Activity (in vitro)	EC50 [1] [nM]	EC50 [2] [nM]	Alpha2A Intrinsic Activity (in vitro, hydrochloride)
2-(5-methoxy-3-(2,2,2-trifluoroethyl)methyl-isochroman-1-yl)-4,5-dihydro-1H-imidazole [Example 77]	6.3	0.16	–	–	–
CC1(C2=NCCN2)OCCc2c(C(O)C(C)(C)C)cccc21 (single isomer, unassigned) [Example 13, 1-(1-(4,5-Dihydro-1H-imidazol-2-yl)-1-methylisochroman-5-yl)-2,2-dimethylpropan-1-ol]	–	0.66	1260	–	–
CC1(C2=NCCN2)OCCc2c(C(O)C(C)(C)C)cccc21 (single isomer, unassigned) [Example 14, 1-(1-(4,5-Dihydro-1H-imidazol-2-yl)-1-methylisochroman-5-yl)-2,2-dimethylpropan-1-ol]	–	0.43	3160	–	–
Cc1cccc2c1CCOC2(C)C1=NCCN1 (single isomer, unassigned) [Example 21, 2-(1,5-Dimethylisochroman-1-yl)-4,5-dihydro-1H-imidazole]	–	0.73	–	50.1	–
Cc1cccc2c1CCOC2(C)C1=NCCN1 (single isomer, unassigned) [Example 22, 2-(1,5-Dimethylisochroman-1-yl)-4,5-dihydro-1H-imidazole]	–	0.33	1000	–	–
FC(F)(F)CC1Cc2c(Br)cccc2C(C2=NCCN2)O1 (single isomer, unassigned) [Example 68]	–	0.25	–	–	–
CCc1cccc2c1CCOC2C1=NCCN1 (single isomer, unassigned) [Example 80]	–	0.58	251	–	–
COc1cccc2c1CCOC2C1=NCCN1 (single isomer, unassigned) [Example 82, 2-(5-methoxyisochroman-1-yl)-4,5-dihydro-1H-imidazole]	–	0.52	158	–	–
FC(F)(F)CC1Cc2c(Br)cccc2C(C2=NCCN2)O1 (single isomer, unassigned) [Example 83]	–	0.41	126	–	–
Cc1cccc2c1CC(CC(F)(F)F)OC2C1=NCCN1 (single isomer, unassigned) [Example 86, 2-((3)-5-methyl-3-(2,2,2-trifluoroethyl)isochroman-1-yl)-4,5-dihydro-1H-imidazole]	–	0.28	100	–	–
CCCC1Cc2c(Br)cccc2C(C2=NCCN2)O1 (single isomer, unassigned) [Example 88, 2-((3)-5-bromo-3-propylisochroman-1-yl)-4,5-dihydro-1H-imidazole]	–	0.50	–	50.1	–
Cc1cccc2c1CC(CC(F)F)OC2C1=NCCN1 (single isomer, unassigned) [Example 89, 2-((3-(2,2-difluoroethyl)-5-methylisochroman-1-yl)-4,5-dihydro-1H-imidazole hydrochloride]	–	–	–	39.8	0.33
Clc1cccc2c1CCOC2C1=NCCN1 (single isomer, unassigned) [Example 92, 2-(5-chloroisochroman-1-yl)-4,5-dihydro-1H-imidazole]	–	0.78	–	31.6	–
CCC1Cc2c(Br)cccc2C(C2=NCCN2)O1 (single isomer, unassigned) [Example 94, 2-(5-bromo-3-ethylisochroman-1-yl)-4,5-dihydro-1H-imidazole]	–	0.55	–	25.1	–
CCc1cccc2c1CCOC2C1=NCCN1 (single isomer, unassigned) [Example 96]	–	0.66	–	20	–
COc1cccc2c1CCOC2C1=NCCN1 (single isomer, unassigned) [Example 97, 2-(5-methoxyoisochroman-1-yl)-4,5-dihydro-1H-Imidazole]	–	0.69	15.8	–	–
Clc1cccc2c1CCOC2C1=NCCN1 (single isomer, unassigned) [Example 100, 2-(5-chloroisochroman-1-yl)-4,5-dihydro-1H-imidazole]	–	0.91	–	3.98	–
Brc1cccc2c1CCOC2C1=NCCN1 (single isomer, unassigned) [Example 101, 2-(5-bromoisochroman-1-yl)-4,5-dihydro-1H-imidazole]	–	0.89	–	3.16	–
CC1(C2=NCCN2)OCc2cccc3cccc1c23 (single isomer, unassigned) [Example 103, 2-(1-methyl-1,3-dihydrobenzo[de]isochromen-1-yl)-4,5-dihydro-1H-imidazole]	–	0.74	–	6.31	–
CC1(C2=NCCN2)OCCc2c(Br)cccc21 (single isomer, unassigned) [Example 106, 2-(5-bromo-1-methylisochroman-1-yl)-4,5-dihydro-1H-imidazole]	–	0.64	158	–	–
Cc1cccc2c1CCOC2C1=NCCN1 (centres unmarked) [Example 1, 2-(5-Methylisochroman-1-yl)-4,5-dihydro-1H-imidazole]	–	0.89	–	3.98	–

Molecule	Alpha2A Agonism pEC50 (in vitro)	Alpha2A Intrinsic Activity (in vitro)	EC50 [1] [nM]	EC50 [2] [nM]	Alpha2A Intrinsic Activity (in vitro, hydrochloride)
Brc1cccc2c1CCOC2C1=NCCN1 (centres unmarked) [Example 2, 2-(5-Bromoisochroman-1-yl)-4,5-dihydro-1H-imidazole]	–	0.85	–	15.8	–
Cc1cccc2c1CCOC2(C)C1=NCCN1 (centres unmarked) [Example 3, 2-(1,5-Dimethylisochroman-1-yl)-4,5-dihydro-1H-imidazole]	–	0.95	–	63.1	–
Clc1cccc2c1CCOC2C1=NCCN1 (centres unmarked) [Example 4, 2-(5-Chloroisochroman-1-yl)-4,5-dihydro-1H-imidazole]	–	0.85	–	7.94	–
N#Cc1cccc2c1CCOC2C1=NCCN1 (centres unmarked) [Example 5, 1-(4,5-Dihydro-1H-imidazol-2-yl)isochroman-5-carbonitrile]	–	0.59	1260	–	–
C=CCc1cccc2c1CCOC2C1=NCCN1 (centres unmarked) [Example 6, 2-(5-Allylisochroman-1-yl)-4,5-dihydro-1H-imidazole]	–	0.53	–	39.8	–
C=Cc1cccc2c1CCOC2C1=NCCN1 (centres unmarked) [Example 7, 2-(5-Vinylisochroman-1-yl)-4,5-dihydro-1H-imidazole]	–	0.81	–	39.8	–
CCc1cccc2c1CCOC2C1=NCCN1 (centres unmarked) [Example 8]	–	0.77	–	39.8	–
Oc1cccc2c1CCOC2C1=NCCN1 (centres unmarked) [Example 9, 1-(4,5-Dihydro-1H-imidazol-2-yl)isochroman-5-ol]	–	0.73	200	–	–
OCc1cccc2c1CCOC2C1=NCCN1 (centres unmarked) [Example 10, (1-(4,5-Dihydro-1H-imidazol-2-yl)isochroman-5-yl)methanol]	–	0.90	–	20	–
CC1(C2=NCCN2)OCCc2c(Br)cccc21 (centres unmarked) [Example 11, 2-(5-Bromo-1-methylisochroman-1-yl)-4,5-dihydro-1H-imidazole]	–	0.83	–	100	–
CC[C@@H]1Cc2c(Cl)cccc2C(C2=NCCN2)O1 (stereo partly drawn) [Example 12, 2-((3R)-5-chloro-3-ethylisochroman-1-yl)-4,5-dihydro-1H-imidazole]	–	0.94	1580	–	–
C#Cc1cccc2c1CCOC2C1=NCCN1 (centres unmarked) [Example 15, 2-(5-Ethynylisochroman-1-yl)-4,5-dihydro-1H-imidazole]	–	0.88	–	15.8	–
CC[C@@H]1Cc2c(cccc2C(F)(F)F)C(C2=NCCN2)O1 (stereo partly drawn) [Example 16, 2-((3R)-3-ethyl-5-(trifluoromethyl)isochroman-1-yl)-4,5-dihydro-1H-imidazole]	–	0.51	50.1	–	–
COc1cccc2c1CCOC2C1=NCCN1 (centres unmarked) [Example 17, 2-(5-Methoxyisochroman-1-yl)-4,5-dihydro-1H-imidazole]	–	0.81	25.1	–	–
Ic1cccc2c1CCOC2C1=NCCN1 (centres unmarked) [Example 18, 2-(5-Iodoisochroman-1-yl)-4,5-dihydro-1H-imidazole]	–	0.81	–	2	–
C[C@@H]1Cc2c(cccc2C(F)(F)F)C(C2=NCCN2)O1 (stereo partly drawn) [Example 19, 2-((3R)-3-methyl-5-(trifluoromethyl)isochroman-1-yl)-4,5-dihydro-1H-imidazole]	–	0.81	–	5.01	–
CC1COC(C2=NCCN2)c2cccc(Br)c21 (centres unmarked) [Example 20, 2-(5-Bromo-4-methylisochroman-1-yl)-4,5-dihydro-1H-imidazole]	–	0.87	–	63.1	–
Cc1cccc2c1C[C@@H](C)OC2(C)C1=NCCN1 (stereo partly drawn) [Example 23, 2-((3R)-1,3,5-trimethylisochroman-1-yl)-4,5-dihydro-1H-imidazole]	–	0.68	316	–	–
CC1(C2=NCCN2)OCCc2c(C3CC3)cccc21 (centres unmarked) [Example 24]	–	0.20	794	–	–
Cc1cccc2c1CC(C)OC2C1=NCCN1 (centres unmarked) [Example 25, 2-(3,5-Dimethylisochroman-1-yl)-4,5-dihydro-1H-imidazole]	–	0.82	–	3.16	–
CC1Cc2c(Cl)cccc2C(C2=NCCN2)O1 (centres unmarked) [Example 26, 2-(5-Chloro-3-methylisochroman-1-yl)-4,5-dihydro-1H-imidazole]	–	0.82	–	3.98	–
